# Test results published in US20260297134A1, “CYCLIC PEPTIDES AS PET IMAGING AGENTS OF GRANZYME B” (Merck Sharp & Dohme LLC, priority 2023, published 2026).
# Bridge positions count the residues as written; N and C are the ends. Square brackets hold non-standard residues; d marks the D form. Peptide text beside a SMILES is read from it. * marks the point of attachment. X1 = O=C(O)CN1CCN(CC(=O)O)CC(Cc2ccc(NC(=S)*)cc2)N(CC(=O)O)CC1; NMeF = CN[C@@H](Cc1ccccc1)C(=O)O
# Target: human Granzyme B (hGranzyme B) (Homo sapiens, UniProt P10144)
# Sequence (P10144 21-247): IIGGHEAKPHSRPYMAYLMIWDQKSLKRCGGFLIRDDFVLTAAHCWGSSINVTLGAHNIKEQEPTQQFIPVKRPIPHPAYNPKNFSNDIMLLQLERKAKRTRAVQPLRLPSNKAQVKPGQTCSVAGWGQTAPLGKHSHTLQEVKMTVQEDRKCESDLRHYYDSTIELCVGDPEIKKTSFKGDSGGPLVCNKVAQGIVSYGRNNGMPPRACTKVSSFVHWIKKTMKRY
# Assay: Surface Plasmon Resonance (SPR) binding to human Granzyme B
# Conditions: Table 8, 25° C.
# Experimental: All reagents and solvents were purchased from commercial sources and used “as is” unless otherwise noted. Reaction progress and synthetic intermediate analysis were assessed by LCMS (UV detection with ESI, APCI, or other mass detection) when applicable using a MeCN/water gradient with either TFA, formic acid, or NH4HCO3 modifier. Silica gel and reverse-phase flash column chromatography were conducted with commercially available pre-packed columns. Reverse-phase preparative HPLC purification was performed on preparative HPLC instruments with UV and MS detection using a MeCN/water gradient with either TFA, formic acid, or NH4OH modifier. Unless otherwise noted, all KD data presented in tables refers to the surface plasmon resonance assay that is described in the Biological Assay section.
# The kinetics of test peptide binding to human Granzyme B (hGranzyme B) was determined by SPR. All experiments were performed at 25° C. using the Biacore 8k+ instrument (Cytiva, Marlborough, MA). The Biacore 8k+ Insight Evaluation Software Version 3.0 was used to fit the data with a 1:1 binding model to determine the association rate constant ka (M^−1s^−1, where “M” equals molar and “s” equals seconds) and the dissociation rate constant kd (s^−1). These rate constants were used to calculate the equilibrium dissociation constant, KD (M)=kd/ka. To measure the binding kinetics of peptides of interest, surfaces were prepared by a capture method to a Series S Streptavidin (SA) chip using a 1×HBS-EP+ running buffer (Cytiva). hGranzyme B was diluted to 10 μg/mL in 1×HBS-EP+ and flowed over spot 2 of each flow cell on the chip at a flow rate of 10 μl/min for 20 s to achieve a level of capture of ~1100 RU. An unmodified spot 1 of each flow cell was used as a matrix binding control or reference surface. Binding kinetics were measured using single cycle kinetics at 25° C. by injecting 5 concentrations with 3-fold serial dilutions of test peptides from […] to 1 μM. Compound dilutions were performed manually in a running buffer containing 1×HBS-EP+(Cytiva), and a final concentration of 2% DMSO. The interaction analyses over hGranzyme B, were performed using a 120 s association time and a 900 s dissociation time. All experiments were conducted at a flow rate of […] with a data collection rate of 10 Hz.
# Peptide dilution series included 2 zero concentration points (no compound) which were averaged and subtracted from the peptide concentration injection as DMSO control responses. Binding data acquired from the reference surface (matrix binding control) were subtracted from the binding data for hGranzyme B surface on the chip to determine specific binding. Next, the association phase data were solvent corrected to account for any signal fluctuation throughout the experiment due to subtle DMSO concentration differences. Corrected response data were analyzed using the Biacore 8k+ Evaluation Software Version 3.0 according to the manufacturer. SPR data for representative compounds of the disclosure are found in Table 8.
row,Compound,Kd [nM]
1,"CC(C)[C@@H]1NC(=O)[C@H](CC(=O)O)NC(=O)[C@H](Cc2ccc(O)cc2)NC(=O)[C@H](Cc2ccc(O)cc2)NC(=O)[C@H](Cc2ccccc2)N(C)C(=O)[C@H](Cc2ccccc2)N(C)C(=O)[C@H](C)NC(=O)CSC[C@@H](C(=O)NCC(N)=O)NC(=O)[C@H](Cc2c[nH]cn2)NC(=O)[C@H](Cc2ccccc2)N(C)C(=O)[C@H](Cc2ccc(O)cc2)NC(=O)[C@H](C(C)C)NC(=O)[C@H](CC(=O)O)NC(=O)[C@H](C(C)C)NC(=O)[C@H](CC(=O)O)NC1=O [Compound 19a, *A.NMeF.NMeF.Y.Y.D.V.D.V.D.V.Y.NMeF.H.*C.G-NH2] ({CH2CO}-A[NMeF][NMeF]YYDVDVDVY[NMeF]HCG-NH2; thioether N-15)",165
2,"CC(C)[C@@H]1NC(=O)[C@H](CC(=O)O)NC(=O)[C@H](C)NC(=O)[C@H](Cc2ccc(O)cc2)NC(=O)[C@H](Cc2ccccc2)N(C)C(=O)[C@H](Cc2ccccc2)N(C)C(=O)[C@H](Cc2ccccc2)NC(=O)CSC[C@@H](C(=O)NCC(=O)N[C@@H](CCCCN)C(N)=O)NC(=O)[C@H](Cc2c[nH]cn2)NC(=O)[C@H](Cc2ccccc2)N(C)C(=O)[C@H](Cc2ccc(O)cc2)NC(=O)[C@H](C(C)C)NC(=O)[C@H](CC(=O)O)NC(=O)[C@H](C(C)C)NC(=O)[C@H](CC(=O)O)NC1=O [Compound 10a, *F.NMeF.NMeF.Y.A.D.V.D.V.D.V.Y.NMeF.H.*C.G.K-NH2] ({CH2CO}-F[NMeF][NMeF]YADVDVDVY[NMeF]HCGK-NH2; thioether N-15)",1
3,"CC(C)[C@@H]1NC(=O)[C@H](CC(=O)O)NC(=O)[C@H](Cc2ccc(O)cc2)NC(=O)[C@H](Cc2ccc(O)cc2)NC(=O)[C@H](Cc2ccccc2)N(C)C(=O)[C@H](Cc2ccccc2)N(C)C(=O)[C@H](Cc2ccccc2)NC(=O)CSC[C@@H](C(=O)NCC(=O)NCC(=O)N[C@@H](CCCCNC(=S)Nc2ccc(CC3CN(CC(=O)O)CCN(CC(=O)O)CCN3CC(=O)O)cc2)C(N)=O)NC(=O)[C@H](Cc2c[nH]cn2)NC(=O)[C@H](Cc2ccccc2)N(C)C(=O)[C@H](Cc2ccc(O)cc2)NC(=O)[C@H](C(C)C)NC(=O)[C@H](CC(=O)O)NC(=O)[C@H](C(C)C)NC(=O)[C@H](CC(=O)O)NC1=O (some centres unmarked) [Compound 3a, *F.NMeF.NMeF.Y.Y.D.V.D.V.D.V.Y.NMeF.H.*C.G.G.K(NOTA)-NH2] ({CH2CO}-F[NMeF][NMeF]YYDVDVDVY[NMeF]HCGGK(X1)-NH2; thioether N-15)",1
4,"CC(C)[C@@H]1NC(=O)[C@H](CC(=O)O)NC(=O)[C@H](Cc2ccc(O)cc2)NC(=O)[C@H](Cc2ccc(O)cc2)NC(=O)[C@H](Cc2ccccc2)N(C)C(=O)[C@H](Cc2ccccc2)N(C)C(=O)[C@H](Cc2ccccc2)NC(=O)CSC[C@@H](C(=O)NCC(N)=O)NC(=O)[C@H](C)NC(=O)[C@H](Cc2ccccc2)N(C)C(=O)[C@H](Cc2ccc(O)cc2)NC(=O)[C@H](C(C)C)NC(=O)[C@H](CC(=O)O)NC(=O)[C@H](C(C)C)NC(=O)[C@H](CC(=O)O)NC1=O [Compound 14a, *F.NMeF.NMeF.Y.Y.D.V.D.V.D.V.Y.NMeF.A.*C.G-NH2] ({CH2CO}-F[NMeF][NMeF]YYDVDVDVY[NMeF]ACG-NH2; thioether N-15)",0.8
5,"CC(C)[C@@H]1NC(=O)[C@H](CC(=O)O)NC(=O)[C@H](Cc2ccc(O)cc2)NC(=O)[C@H](Cc2ccc(O)cc2)NC(=O)[C@H](Cc2ccccc2)N(C)C(=O)[C@H](Cc2ccccc2)N(C)C(=O)[C@H](Cc2ccccc2)NC(=O)CSC[C@@H](C(=O)NCC(=O)NCC(=O)N[C@@H](CCCCNC(=S)Nc2ccc(CC3CN(CC(=O)O)CCN(CC(=O)O)CCN3CC(=O)O)cc2)C(N)=O)NC(=O)[C@H](Cc2c[nH]cn2)NC(=O)[C@H](Cc2ccccc2)N(C)C(=O)[C@H](Cc2ccc(O)cc2)NC(=O)[C@H](C(C)C)NC(=O)[C@H](CC(=O)O)NC(=O)[C@H](C)NC(=O)[C@H](CC(=O)O)NC1=O (some centres unmarked) [Compound 8a, *F.NMeF.NMeF.Y.Y.D.V.D.A.D.V.Y.NMeF.H.*C.G.G.K(NOTA)-NH2] ({CH2CO}-F[NMeF][NMeF]YYDVDADVY[NMeF]HCGGK(X1)-NH2; thioether N-15)",3.7
